Results: PMC6430037 (Heliyon, 2019)
Entries after “also recorded” stand apart in the source; their conditions may differ. Structures can show the parent of a compound that is named as a salt.

Legend:
[1] = system: BDZ-bs of the GABAA receptor; assay: [3H]-FNZ radioligand binding assay; conditions: [3H]-FNZ displacement, compound at 300 μM, rat cerebral cortex membranes
μ-opioid receptor = μ-opioid receptor (Rattus norvegicus, UniProt P33535); assay: [3H]-DAMGO radioligand binding assay; conditions: for inhibition at 300 µM: read-out: μ-opioid Binding inhibition (%) [300 μM]; for Ki: μ-opioid Ki, [3H]-DAMGO, rat forebrain membranes, Ki ± SEM, 2 determinations
5-HT1A receptor = target: T1, 5-HT1A receptor (Rattus norvegicus, UniProt P19327); assay: [3H]-8-OH-DPAT radioligand binding assay; conditions: for inhibition at 300 µM: read-out: 5-HT1A Binding Inhibition (%) [300 μM]
T1 sequence (P19327 1-422): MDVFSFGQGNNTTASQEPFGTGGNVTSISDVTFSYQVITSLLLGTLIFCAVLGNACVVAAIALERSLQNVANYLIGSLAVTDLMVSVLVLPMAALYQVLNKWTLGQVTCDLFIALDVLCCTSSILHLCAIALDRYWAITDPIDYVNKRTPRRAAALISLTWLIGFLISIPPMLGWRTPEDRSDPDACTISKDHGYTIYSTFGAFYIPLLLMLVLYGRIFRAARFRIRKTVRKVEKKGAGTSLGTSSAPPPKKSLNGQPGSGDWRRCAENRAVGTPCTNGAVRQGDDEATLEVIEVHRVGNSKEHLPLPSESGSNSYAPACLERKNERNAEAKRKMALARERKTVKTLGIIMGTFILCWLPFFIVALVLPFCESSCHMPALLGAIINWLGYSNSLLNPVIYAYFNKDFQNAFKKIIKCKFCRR

mice [2] = conditions: cited from earlier work
mice [3] = conditions: cited from earlier work; remark: listed apart in the source
mice [4] = assay: Acetic acid induced writhing test; assay type: in vivo; conditions: for number of writhes vs VEH: acetic acid 0.75%
mice [5] = assay: Hot plate test; assay type: in vivo; conditions: plate 52.5 °C; for reaction (latency) time against thermal stimulus vs VEH: 30 mg/kg i.p.
mice [6] = assay: Elevated plus-maze test; assay type: in vivo
Cell viability assay = assay type: cell-based, human; conditions: human, SH-SY5Y cells
[7] = PAMPA-BBB permeability assay; assay type: in vitro ADME; conditions: for Papp at 16 h, 50 µM: PAMPA, pH 7.4; for BBB penetration estimation Prediction: PAMPA-BBB binning by -logPe
mice [8] = assay: Spontaneous locomotor activity; assay type: in vivo; conditions: 10 and 30 mg/kg i.p., 5 min counts
mice [9] = assay: Rotarod; assay type: in vivo; conditions: 30 mg/kg i.p., cut-off 120 s
rats = conditions: cited from earlier work
mice [10] = assay: Tail suspension test; assay type: in vivo; conditions: 30 min before
[11] = 10 mg/kg i.p., 30 min before, 5 min session

Chain of μ-opioid receptor (P33535 whole entry): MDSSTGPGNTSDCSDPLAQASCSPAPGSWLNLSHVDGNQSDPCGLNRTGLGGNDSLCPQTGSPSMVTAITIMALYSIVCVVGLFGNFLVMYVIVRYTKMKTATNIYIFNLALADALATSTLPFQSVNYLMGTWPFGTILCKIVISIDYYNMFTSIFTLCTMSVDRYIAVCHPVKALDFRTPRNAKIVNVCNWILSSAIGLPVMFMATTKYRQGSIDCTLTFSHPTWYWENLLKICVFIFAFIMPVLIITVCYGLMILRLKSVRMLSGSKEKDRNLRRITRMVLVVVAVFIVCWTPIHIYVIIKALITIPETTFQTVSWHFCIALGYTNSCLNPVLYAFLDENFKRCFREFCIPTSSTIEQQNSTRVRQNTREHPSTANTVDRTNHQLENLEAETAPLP

Structure (SMILES)	BDZ-bs Binding inhibition (%) [300 μM] [1]	inhibition at 300 µM (μ-opioid receptor)	inhibition at 300 µM (5-HT1A receptor)	Ki (μ-opioid receptor)	Ki (5-HT1A receptor)	also measured
O=C(/C=C/c1cccc(Cl)c1)c1ccccc1 [Compound 18, (2E)-3-(3-chlorophenyl)-1-phenyl-2-propen-1-one]	++ (inhibition 40–60% (++))	20 to 40%	20 to 40%	–	–	–
O=C(/C=C/c1cccc(Br)c1)c1ccc(O)cc1O [3-bromo-2′,4′-dihydroxychalcone]	–	–	–	–	–	lethality in the yohimbine-induced mortality test (mice [2]): enhanced the mouse lethality; head-twitches in the 5-HT induced head-twitch test (mice [3]): significantly increased head-twitches
CN(C)c1ccc(/C=C/C(=O)c2ccccc2)cc1 [Compound 20, (2E)-3-[4-(dimethylamino)phenyl]-1-phenyl-2-propen-1-one]	- (inhibition <20% (-))	60 to 90%	60 to 90%	23.8 ± 3.1 µM	59.6 ± 1.5 µM	–
O=C(/C=C/c1ccccc1)c1ccccc1O [Compound 2, (2E)-1-(2-hydroxyphenyl)-3-phenyl-2-propen-1-one]	+++ (inhibition 60–90% (+++))	20 to 40%	60 to 90%	–	71.4 ± 1.4 µM	–
Cc1ccc(C(=O)/C=C/c2ccccc2)cc1 [Compound 15, (2E)-1-(4-methylphenyl)-3-phenyl-2-propen-1-one]	+++ (inhibition 60–90% (+++))	20 to 40%	40 to 60%	–	–	–
COc1ccc(O)c(C(=O)/C=C/c2ccccc2)c1 [Compound 4, (2E)-1-(2-hydroxy-5-methoxyphenyl)-3-phenyl-2-propen-1-one]	+++ (inhibition 60–90% (+++))	60 to 90%	60 to 90%	54.6 ± 2.9 µM	303 ± 1.2 µM	–
COc1ccc(C(=O)/C=C/c2ccccc2)c(O)c1 [Compound 3, (2E)-1-(2-hydroxy-4-methoxyphenyl)-3-phenyl-2-propen-1-one]	+++ (inhibition 60–90% (+++))	20 to 40%	20 to 40%	–	–	–
O=C(/C=C/c1c(Cl)cccc1Cl)c1ccc(O)cc1O [2,6-dichloro-2′,4′-dihydroxychalcone]	–	–	–	–	–	lethality in the yohimbine-induced mortality test (mice [2]): enhanced the mouse lethality; head-twitches in the 5-HT induced head-twitch test (mice [3]): significantly increased head-twitches
CN1CC[C@]23c4c5ccc(O)c4O[C@H]2[C@@H](O)C=C[C@H]3[C@H]1C5 [morphine, Morphine hydrochloride, reference compound]	–	–	–	–	–	abdominal cramps (mice [4]; 6 mg/kg i.p.): no abdominal cramps; latency time (mice [5]; 6 mg/kg i.p., 45 s cut-off): 42.6 s
COc1cc(C(=O)/C=C/c2ccccc2)ccc1O [Compound 13, (2E)-1-(4-hydroxy-3-methoxyphenyl)-3-phenyl-2-propen-1-one]	++ (inhibition 40–60% (++))	40 to 60%	40 to 60%	–	287.8 ± 1.9 µM	–
Cc1ccc(O)c(C(=O)/C=C/c2ccccc2)c1 [Compound 9, (2E)-1-(2-hydroxy-5-methylphenyl)-3-phenyl-2-propen-1-one]	+++ (inhibition 60–90% (+++))	60 to 90%	40 to 60%	46.3 ± 1.6 µM	–	percentage of open arm entries vs VEH (mice [6]; [11]): significantly increased; percentage of time spent in open arms vs VEH (mice [6]; [11]): significantly increased; number of total arm entries vs VEH (mice [6]; 30 mg/kg i.p.): significantly increased; viability at 48 h, 20 µM (Cell viability assay): 88.5%; Papp at 16 h, 50 µM [7]: 25.1 ×10⁻⁶ cm/s; BBB penetration estimation Prediction [7]: CNS+ (CNS+, -logPe < 5.6, high permeability); spontaneous locomotor activity vs VEH (mice [8]): did not show significant differences
O=C(/C=C/c1ccccc1)c1cc(Br)ccc1O [Compound 8, (2E)-1-(5-bromo-2-hydroxyphenyl)-3-phenyl-2-propen-1-one]	++ (inhibition 40–60% (++))	20 to 40%	40 to 60%	–	–	–
Nc1ccc(C(=O)/C=C/c2cccc([N+](=O)[O-])c2)cc1 [Compound 21, (2E)-1-(4-aminophenyl)-3-(3-nitrophenyl)-2-propen-1-one]	–	40 to 60%	60 to 90%	–	473 ± 7.3 µM	–
O=C(/C=C/c1ccc([N+](=O)[O-])cc1)c1ccccc1 [Compound 17, (2E)-3-(4-nitrophenyl)-1-phenyl-2-propen-1-one]	- (inhibition <20% (-))	20 to 40%	< 20%	–	–	–
Nc1ccc(C(=O)/C=C/c2ccccc2)cc1 [Compound 14, (2E)-1-(4-aminophenyl)-3-phenyl-2-propen-1-one]	+++ (inhibition 60–90% (+++))	60 to 90%	40 to 60%	59.4 ± 1.5 µM	–	–
O=C(/C=C/c1cccc([N+](=O)[O-])c1)c1ccccc1 [Compound 16, (2E)-3-(3-nitrophenyl)-1-phenyl-2-propen-1-one]	++++ (inhibition >90% (++++))	< 20%	40 to 60%	–	–	number of total arm entries vs VEH (mice [6]; [11]): significantly increased
Cc1cc(C(=O)/C=C/c2ccccc2)c(O)c([N+](=O)[O-])c1 [Compound 12, (2E)-1-(5-methyl-3-nitro-2-hydroxyphenyl)-3-phenyl-2-propen-1-one]	+ (inhibition 20–40% (+))	> 90%	< 20%	10.8 ± 3.6 µM	–	inhibition of constrictions compared to VEH (mice [4]; 3 mg/kg i.p.): 59.7%; inhibition of constrictions compared to VEH (mice [4]; 10 mg/kg i.p.): 62.6%; number of writhes vs VEH (mice [4]; 10 mg/kg i.p.): significantly reduced; inhibition of constrictions compared to VEH (mice [4]; 30 mg/kg i.p.): 96.1%; viability at 48 h, 20 µM (Cell viability assay): 74.8%; Papp at 16 h, 50 µM [7]: 33.9 ×10⁻⁶ cm/s; BBB penetration estimation Prediction [7]: CNS+ (CNS+, -logPe < 5.6, high permeability); reaction (latency) time against thermal stimulus vs VEH (mice [5]): significant increases; also recorded: significantly increased; balance on the Rotarod (mice [9]): did not produce neurotoxicity or motor impairment; spontaneous locomotor activity vs VEH (mice [8]): None of the mice treated with chalcone 12 showed any failure in their locomotion
O=C(/C=C/c1ccc(O)c(O)c1)c1ccc(O)cc1O [butein]	–	–	–	–	–	effect in the plus-maze test (rats): anxiolytic-like effect
O=C(/C=C/c1ccccc1)c1cc(Br)cc(Br)c1O [Compound 10, (2E)-1-(3,5-dibromo-2-hydroxyphenyl)-3-phenyl-2-propen-1-one]	- (inhibition <20% (-))	60 to 90%	60 to 90%	32.5 ± 9.3 µM	1220 ± 469 µM	–
COc1cccc(O)c1C(=O)/C=C/c1ccccc1 [Compound 5, (2E)-1-(2-hydroxy-6-methoxyphenyl)-3-phenyl-2-propen-1-one]	- (inhibition <20% (-))	60 to 90%	> 90%	26.7 ± 1.6 µM	13.3 ± 0.3 µM	immobility time vs VEH (mice [10]; 10 mg/kg i.p.): not active
O=C(/C=C/c1ccc(Cl)cc1)c1ccccc1 [Compound 19, (2E)-3-(4-chlorophenyl)-1-phenyl-2-propen-1-one]	+ (inhibition 20–40% (+))	20 to 40%	< 20%	–	–	–
Cc1cc(O)c(C(=O)/C=C/c2ccccc2)cc1C [Compound 11, (2E)-1-(4,5-dimethyl-2-hydroxyphenyl)-3-phenyl-2-propen-1-one]	+ (inhibition 20–40% (+))	60 to 90%	60 to 90%	29.1 ± 8.5 µM	164 ± 1.47 µM	–
O=C(/C=C/c1ccccc1)c1cc(F)ccc1O [Compound 7, (2E)-1-(5-fluoro-2-hydroxyphenyl)-3-phenyl-2-propen-1-one]	++ (inhibition 40–60% (++))	60 to 90%	60 to 90%	29.5 ± 6.6 µM	129 ± 2.7 µM	–
O=C(/C=C/c1ccccc1)c1cc(Cl)ccc1O [Compound 6, (2E)-1-(5-chloro-2-hydroxyphenyl)-3-phenyl-2-propen-1-one]	++ (inhibition 40–60% (++))	60 to 90%	40 to 60%	19.4 ± 3.5 µM	–	number of writhes vs VEH (mice [4]; 10 mg/kg i.p.): significantly reduced; reaction (latency) time against thermal stimulus vs VEH (mice [5]): Only chalcone 12 at 30 mg/kg caused significant increases
CN(C)CCCN1c2ccccc2CCc2ccccc21 [IMP, imipramine hydrochloride, reference compound]	–	–	–	–	–	immobility time vs VEH (mice [10]; 30 mg/kg i.p.): significantly reduced
